Laboratory results from patent US11129839B2, “Minocycline compounds for biodefense” (priority 2015, dated 2021).
Values after ≈ are worked out from the molar mass of the structure shown. Read-outs that look alike come from different tables or passages of the source.

Experiments:
[1] = tested on: Enterococcus faecium (VRE); settings: cited from earlier work
Shigella spp. = settings: cited from earlier work
Burkholderia cepacia = settings: cited from earlier work
B. anthracis [2] = assay: microbe, parasite or virus in culture; format: cell-based
[3] = tested on: Enterococcus facecalis (VRE); settings: cited from earlier work
B. pseudomallei [4] = assay: microbe, parasite or virus in culture; format: cell-based; settings: Burkholderia pseudomallei
[5] = tested on: Enterococcus faecalis (VSE); settings: cited from earlier work
Escherichia coli = settings: cited from earlier work
Bacteroides fragilis = settings: cited from earlier work
Clostridium perfringens = settings: cited from earlier work
Proteus mirabilis = settings: cited from earlier work
Klebsiella pneumonia = settings: cited from earlier work
[6] = tested on: Coagulase-negative staphylococci; settings: cited from earlier work
E. faecalis = assay: animal or person; format: in vivo, Mice; settings: Enterococcus faecalis, in Mus musculus, read-out: PD50/ED50
F. tularensis = assay: microbe, parasite or virus in culture; format: cell-based
Pseudomonas aeruginosa = settings: cited from earlier work
Enterobacter cloacae = settings: cited from earlier work
E. coli = assay: animal or person; format: in vivo, Mice; settings: Escherichia coli, in Mus musculus, read-out: PD50/ED50
Moraxella catarrhalis = settings: cited from earlier work
H. influenza = assay: animal or person; format: in vivo, Mice; settings: Mus musculus, read-out: PD50/ED50
[7] = tested on: Streptococcus pneumoniae (PRSP); settings: cited from earlier work
Enterobacter aerogenes = settings: cited from earlier work
[8] = tested on: Staphylococcus aureus (MSSA); settings: cited from earlier work
Streptococcus pneumonia = settings: cited from earlier work
Streptococcus pyogenes = settings: cited from earlier work
Legionella pneumophila = assay: microbe, parasite or virus in culture; format: cell-based
[9] = tested on: bacteria isolated from clinical specimens; format: cell-based
Clostridium difficile = settings: cited from earlier work
B. anthracis AMES strain = tested on: B. anthracis AMES strain; design: species or system BALB/c mice; settings: mouse, in vivo; for PD50: ip
Haemophilus influenza = settings: cited from earlier work
Y. pestis (C092) = tested on: Y. pestis (C092); design: species or system BALB/c mice; settings: mouse, in vivo; for PD50: ip
Y. pestis [10] = assay: microbe, parasite or virus in culture; format: cell-based
[11] = tested on: Staphylococcus aureus (MRSA); settings: cited from earlier work
Acinetobacter baumannii = settings: cited from earlier work
B. mallei [12] = assay: microbe, parasite or virus in culture; format: cell-based
Salmonella spp. = settings: cited from earlier work
[13] = tested on: Enterococcus faecium (VSE); settings: cited from earlier work
Streptococcus agalactiae = settings: cited from earlier work
B. mallei (China 7) = tested on: B. mallei (China 7); design: species or system BALB/c mice; settings: mouse, in vivo
Chlamydia pneumonia = assay: microbe, parasite or virus in culture; format: cell-based
Y. pestis [14] = settings: cited from earlier work
B. pseudomallei [15] = settings: cited from earlier work
B. anthracis [16] = settings: cited from earlier work
B. mallei [17] = settings: cited from earlier work

For CN(C)c1cc(CNCC(C)(C)C)c(O)c2c1C[C@H]1C[C@H]3[C@H](N(C)C)C(O)=C(C(N)=O)C(=O)[C@@]3(O)C(O)=C1C2=O [Compound A, 9-[(2,2-dimethyl-propylamino)-methyl]minocycline], the MIC50 [1] is given as 0.12/8 μg/mL, the MIC90 [1] is given as 0.12/8 μg/mL and the MIC50 (Shigella spp.) is given as 1/1 μg/mL. The MIC90 (Shigella spp.) was 2/32 μg/mL, the MIC50 (Burkholderia cepacia) was 2/4 μg/mL and the MIC90 (Burkholderia cepacia) was 64/>32 μg/mL. The MIC range (B. anthracis [2]) was less than 0.03125 to 0.0625 µg/mL, the “in vitro activity (in words)” value (B. anthracis [2]) was “highly active” and the MIC (B. anthracis [2]; Bacillus anthracis) was less than 0.03 µg/mL. The MIC50 (B. anthracis [2]; Bacillus anthracis) was 0.0312 µg/mL (≈ 0.0561 µM), the MIC90 (B. anthracis [2]; Bacillus anthracis) was 0.0625 µg/mL (≈ 0.112 µM) and the MIC50 [3] was 0.12/0.25 μg/mL. For the same compound, the MIC90 [3] was 0.25/8 μg/mL, the MIC50 (B. pseudomallei [4]) was 64 µg/mL (≈ 115 µM) and the MIC90 (B. pseudomallei [4]) was greater than 64 µg/mL. For the same compound, the MIC50 [5] was 0.25/8 μg/mL, the MIC90 [5] was 0.5/8^ μg/mL and the MIC50 (Escherichia coli) was 2/8 μg/mL. For the same compound, the MIC90 (Escherichia coli) was 4/>32 μg/mL, the MIC50 (Bacteroides fragilis) was 1/8 μg/mL and the MIC90 (Bacteroides fragilis) was 4/16 μg/mL. For the same compound, the MIC50 (Clostridium perfringens) was 1/2 μg/mL, the MIC90 (Clostridium perfringens) was 4/8 μg/mL and the MIC50 (Proteus mirabilis) was 16/16 μg/mL. For the same compound, the MIC90 (Proteus mirabilis) was 32/>32 μg/mL, the MIC50 (Klebsiella pneumonia) was 2/2 μg/mL and the MIC90 (Klebsiella pneumonia) was 8/>32 μg/mL. The MIC50 [6] was 0.25/0.25 μg/mL, the MIC90 [6] was 1/2 μg/mL and the ED50 (E. faecalis) was 4.5 mg/kg. For the same compound, the MIC range (F. tularensis) was 0.5 to 2 µg/mL, the “in vitro activity (in words)” value (F. tularensis) was “significant activity” and the MIC50 (F. tularensis; Francisella tularensis) was 1 µg/mL (≈ 1.8 µM). The MIC90 (F. tularensis; Francisella tularensis) was 2 µg/mL (≈ 3.59 µM), the MIC50 (Pseudomonas aeruginosa) was 32/32 μg/mL and the MIC90 (Pseudomonas aeruginosa) was 64/32 μg/mL. For the same compound, the MIC50 (Enterobacter cloacae) was 2/4 μg/mL, the MIC90 (Enterobacter cloacae) was 16/16 μg/mL and the ED50 (E. coli) was 4.3 mg/kg. The MIC50 (Moraxella catarrhalis) was 0.25/0.25 μg/mL, the MIC90 (Moraxella catarrhalis) was 0.25/0.25 μg/mL and the ED50 (H. influenza) was 4.7 mg/kg. For the same compound, the MIC50 [7] was 0.12/8 μg/mL, the MIC90 [7] was 0.12/8 μg/mL and the MIC50 (Enterobacter aerogenes) was 2/2 μg/mL. The MIC90 (Enterobacter aerogenes) was 4/4 μg/mL, the MIC50 [8] was 0.25/0.12 μg/mL and the MIC90 [8] was 0.25/0.25 μg/mL. For the same compound, the MIC50 (Streptococcus pneumonia) was 0.12/0.25 μg/mL, the MIC90 (Streptococcus pneumonia) was 0.12/8 μg/mL and the MIC50 (Streptococcus pyogenes) was 0.12/25^ μg/mL. For the same compound, the MIC90 (Streptococcus pyogenes) was 0.12/0.25 μg/mL, the MIC50 (Legionella pneumophila) was 0.25 µg/mL (≈ 0.449 µM) and the MIC90 (Legionella pneumophila) was 0.25 µg/mL (≈ 0.449 µM). The “effect of serum or lung surfactant on in vitro activity” value [9] was “not affected by serum or lung surfactant”, the MIC50 (Clostridium difficile) was 0.12/0.03 μg/mL and the MIC90 (Clostridium difficile) was 0.12/1 μg/mL. For the same compound, the “percent survival (comparison in words, FIG. 2)” value (B. anthracis AMES strain) was “as effective as doxycycline or ciprofloxacin”, the PD50 (B. anthracis AMES strain) was 0.8 (range of 0.6 to 1.1 mg/kg) and the MIC50 (Haemophilus influenza) was 0.5/0.5 μg/mL. For the same compound, the MIC90 (Haemophilus influenza) was 1/1 μg/mL, the “percent survival (comparison in words, FIG. 1)” value (Y. pestis (C092); 40 mg/kg) was “more effective as doxycycline at 40 mg/kg and is at least as effective or ciprofloxacin at 15 mg/kg” and the PD50 (Y. pestis (C092)) was 23.5 (range of 20.1 to 27.0 mg/kg). For the same compound, the MIC range (Y. pestis [10]) was 0.125 to 2 µg/mL, the “in vitro activity (in words)” value (Y. pestis [10]) was “significant activity” and the MIC (Y. pestis [10]; Yersinia pestis) was 1 µg/mL (≈ 1.8 µM). For the same compound, the MIC50 (Y. pestis [10]; Yersinia pestis) was 1 µg/mL (≈ 1.8 µM), the MIC90 (Y. pestis [10]; Yersinia pestis) was 1 µg/mL (≈ 1.8 µM) and the MIC50 [11] was 0.25/0.12 μg/mL. The MIC90 [11] was 0.25/2 μg/mL, the MIC50 (Acinetobacter baumannii) was 0.25/0.25 μg/mL and the MIC90 (Acinetobacter baumannii) was 4/2 μg/mL. For the same compound, the MIC range (B. mallei [12]) was less than 0.03125 to 0.5 µg/mL, the “in vitro activity (in words)” value (B. mallei [12]) was “highly active” and the MIC (B. mallei [12]; Burkholderia mallei) was 0.25 µg/mL (≈ 0.449 µM). For the same compound, the MIC50 (B. mallei [12]; Burkholderia mallei) was 0.125 µg/mL (≈ 0.225 µM), the MIC90 (B. mallei [12]; Burkholderia mallei) was 0.25 µg/mL (≈ 0.449 µM) and the MIC50 (Salmonella spp.) was 2/4 μg/mL. The MIC90 (Salmonella spp.) was 8/32 μg/mL, the MIC50 [13] was 0.12/0.12 μg/mL and the MIC90 [13] was 0.12/16^ μg/mL. The MIC50 (Streptococcus agalactiae) was 0.25/8 μg/mL, the MIC90 (Streptococcus agalactiae) was 0.25/16^ μg/mL and the “percent survival (in words, FIG. 3)” value (B. mallei (China 7)) was “as effective as doxycycline or azithromycin”. It also gave an MIC50 (Chlamydia pneumonia) of 0.25 µg/mL (≈ 0.449 µM) and an MIC90 (Chlamydia pneumonia) of 0.25 µg/mL (≈ 0.449 µM).

For O=C(O)c1cn(C2CC2)c2cc(N3CCNCC3)c(F)cc2c1=O [Ciprofloxacin], the MIC90 (Y. pestis [14]) is given as 0.03125 µg/mL (≈ 0.0943 µM), the MIC range (Y. pestis [14]) is given as 0.0039 to 0.0625 µg/mL and the MIC50 (B. pseudomallei [15]) is given as 2 µg/mL (≈ 6.04 µM). For the same compound, the MIC90 (B. pseudomallei [15]) was 4 µg/mL (≈ 12.1 µM), the MIC range (B. pseudomallei [15]) was 0.5 to 32 µg/mL and the MIC50 (B. anthracis [16]) was 0.0625 µg/mL (≈ 0.189 µM). For the same compound, the MIC90 (B. anthracis [16]) was 0.125 µg/mL (≈ 0.377 µM), the MIC range (B. anthracis [16]) was 0.03125 to .25 µg/mL and the MIC50 (B. mallei [17]) was 0.5 µg/mL (≈ 1.51 µM). The MIC90 (B. mallei [17]) was 1 µg/mL (≈ 3.02 µM) and the MIC range (B. mallei [17]) was 0.0625 to 1 µg/mL.

With C[C@H]1c2cccc(O)c2C(=O)C2=C(O)[C@]3(O)C(=O)C(C(N)=O)=C(O)[C@@H](N(C)C)[C@@H]3[C@@H](O)[C@@H]21 [Doxycycline, reference compound] the MIC (B. anthracis [2]; Bacillus anthracis) was 0.03 µg/mL (≈ 0.0675 µM), the MIC50 (Legionella pneumophila) was 1 µg/mL (≈ 2.25 µM) and the MIC90 (Legionella pneumophila) was 1 µg/mL (≈ 2.25 µM). For the same compound, the PD50 (B. anthracis AMES strain) was 2.0 (range of 1.4 to 2.6) mg/kg, the PD50 (Y. pestis (C092)) was 29.7 (range of 20.7 to 38.8) mg/kg and the MIC (Y. pestis [10]; Yersinia pestis) was 0.5 µg/mL (≈ 1.13 µM). The MIC (B. mallei [12]; Burkholderia mallei) was 0.06 µg/mL (≈ 0.135 µM).

In the case of CC[C@H]1OC(=O)[C@H](C)[C@@H](O[C@H]2C[C@@](C)(OC)[C@@H](O)[C@H](C)O2)[C@H](C)[C@@H](O[C@@H]2O[C@H](C)C[C@H](N(C)C)[C@H]2O)[C@](C)(O)C[C@@H](C)CN(C)[C@H](C)[C@@H](O)[C@]1(C)O [azithromycin, reference compound], the MIC (B. mallei [12]; Burkholderia mallei) is reported as 0.5 µg/mL (≈ 0.668 µM).
